Key:
[1] = target: T1, Human Recombinant (E. coli) PPARgamma (Homo sapiens, UniProt P37231); test: PPAR gamma binding assay ([3H]-rosiglitazone); details: for Ki / IC50: [3H]-rosiglitazone 10 nM; for Ki: Cheng Prusoff, read-out: PPARγ binding Ki; for IC50: read-out: PPARγ binding IC50
T1 construct: host or cells: E. coli
T1 sequence (P37231 1-505): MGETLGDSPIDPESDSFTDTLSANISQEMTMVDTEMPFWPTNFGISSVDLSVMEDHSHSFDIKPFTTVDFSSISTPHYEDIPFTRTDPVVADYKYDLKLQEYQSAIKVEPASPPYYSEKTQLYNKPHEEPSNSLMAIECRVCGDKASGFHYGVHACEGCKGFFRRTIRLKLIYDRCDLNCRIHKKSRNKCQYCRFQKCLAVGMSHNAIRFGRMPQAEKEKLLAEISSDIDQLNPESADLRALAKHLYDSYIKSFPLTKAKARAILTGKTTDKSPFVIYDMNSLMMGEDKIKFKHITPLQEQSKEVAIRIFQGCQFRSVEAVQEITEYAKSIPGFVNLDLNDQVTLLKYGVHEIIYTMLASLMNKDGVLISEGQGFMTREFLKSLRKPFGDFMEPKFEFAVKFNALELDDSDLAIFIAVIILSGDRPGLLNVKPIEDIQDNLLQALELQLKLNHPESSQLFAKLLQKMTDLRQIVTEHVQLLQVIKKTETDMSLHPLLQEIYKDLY
Method: Incubation: 120 min. at 4° C.
The results are expressed as a percent of control specific binding ((measured specific binding/control specific binding)×100) obtained in the presence of the test compounds. The IC50 values (concentration causing a half-maximal inhibition of control specific binding) and Hill coefficients (nil) were determined by non-linear regression analysis of the competition curves generated with mean replicate values using Hill equation curve fitting (Y=D+[(A−D)/(1+(C/C50)nH)], where Y=specific binding, D=minimum specific binding, A=maximum specific binding, C=compound concentration, C50=IC50, and nH=slope factor). This analysis was performed using a software developed at Cerep (Hill software) and validated by comparison with data generated by the commercial software SigmaPlot® 4.0 for Windows® (© 1997 by SPSS Inc.). The inhibition constants (Ki) were calculated using the Cheng Prusoff equation (Ki=IC50/(1+(L/KD)), where L=concentration of radioligand in the assay, and KD=affinity of the radioligand for the receptor).

[2] = system: Human platelet rich plasma; test: TP receptor platelet aggregation, human (U-46619-induced); assay type: cell-based; details: 3 μM U-46619-induced
Method: (§1) Thrombosis Research 33:277-288.
TP Receptor Platelet Aggregation—Human:
Human (60±10 kg) platelet rich plasma
Assay. Inhibition of 3 μM U-46619-induced platelet aggregation Incubation Time, Temp: 5 minutes at 37° C. Incubation Buffer Trisodium Citrate (0.13 M)-treated fresh platelet rich plasma
(§2) Time of Assessment: 5 minutes
(§3) Quantification Method Optical Density Change

[3] = target: T2, Thromboxane receptor (TP) (Homo sapiens, UniProt P21731); test: TP receptor radioligand binding ([3H] SQ-29548); details: Human recombinant HEK-293 cells
T2 construct: expressed in transfected cells; host or cells: HEK-293
T2 sequence (P21731 1-343): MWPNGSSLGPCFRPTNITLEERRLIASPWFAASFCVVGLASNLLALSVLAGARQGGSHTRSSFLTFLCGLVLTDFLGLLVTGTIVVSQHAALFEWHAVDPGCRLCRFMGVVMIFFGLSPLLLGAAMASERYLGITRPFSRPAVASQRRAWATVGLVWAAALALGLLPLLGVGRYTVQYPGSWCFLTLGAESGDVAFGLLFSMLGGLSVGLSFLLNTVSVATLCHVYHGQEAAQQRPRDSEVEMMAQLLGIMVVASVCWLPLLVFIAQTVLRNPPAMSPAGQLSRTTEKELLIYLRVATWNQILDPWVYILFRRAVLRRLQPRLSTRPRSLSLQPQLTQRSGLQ
Method: The compounds were tested on radioligand binding assays for thromboxane receptor binding essentially as described by Hedberg et al. (1988) J. Pharmacol. Exp. Ther. 245:786-792 and Saussy et al. (1986) J. Biol. Chem. 261: 3025-3029 according to the following:
TP Receptor Radioligand Binding Studies:
Human recombinant HEK-293 cells,
Incubation Time, Temp: 30 minutes at 25° C.
Incubation Buffer: 50 mM Tris-HCl, pH 7.4, 154 mM NaCl
Non-Specific Ligand: 1 μM SQ-29548
The data were transformed to semi-log and then analysed using non-linear regression to a four-parameter dose-response curve Y=Bottom+(Top−Bottom)/(1+10̂((LogEC50−X)*HillSlope)) using the log(agonist) vs. response—Variable slope function of GraphPad Prism software (http://graphpad.com/help/prism5/prism5help.html?usitignonlinear_regression_step_by_s.htm).

Thromboxane synthase = target: T3, Thromboxane synthase (Homo sapiens, UniProt P24557); test: Human platelet thromboxane synthase assay; assay type: biochemical
T3 construct: Human Platelet Thromboxane Synthase Assay; from tissue; host or cells: human platelets
T3 sequence (P24557 1-533): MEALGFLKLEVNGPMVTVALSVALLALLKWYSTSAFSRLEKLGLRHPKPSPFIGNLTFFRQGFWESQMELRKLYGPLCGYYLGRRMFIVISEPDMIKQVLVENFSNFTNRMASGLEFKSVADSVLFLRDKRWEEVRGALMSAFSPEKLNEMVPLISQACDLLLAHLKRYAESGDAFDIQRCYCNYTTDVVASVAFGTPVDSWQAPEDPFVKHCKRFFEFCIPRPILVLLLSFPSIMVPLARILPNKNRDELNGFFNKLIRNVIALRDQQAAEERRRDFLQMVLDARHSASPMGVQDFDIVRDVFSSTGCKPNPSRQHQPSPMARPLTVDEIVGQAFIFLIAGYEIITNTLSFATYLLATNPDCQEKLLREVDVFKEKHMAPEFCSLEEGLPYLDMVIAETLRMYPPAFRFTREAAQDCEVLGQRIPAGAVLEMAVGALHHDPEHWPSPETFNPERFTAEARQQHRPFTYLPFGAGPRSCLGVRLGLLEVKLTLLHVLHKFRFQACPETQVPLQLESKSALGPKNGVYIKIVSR
Method: The compounds were tested for thromboxane synthase inhibition essentially as described by Borsch-Haubold A G, Pasquet S, Watson S P. (1998) Direct inhibition of cyclooxygenase-1 and -2 by the kinase inhibitors SB 203580 and PD 98059. […] 1. Imidazole derivatives. J Med. Chem. (10):1139-48 according to the following:
Pre-incubation time, temp: 15 minutes at 25° C. Incubation time, temp: 3 minutes at 25° C.
Incubation Buffer: 10 mM Tris-HCl, pH 7.4
Quantification Method: EIA quantification of TxB2

[4] = system: New Zealand Rabbit platelet rich plasma; test: TP receptor platelet aggregation, rabbit (U-46619-induced); assay type: cell-based
Method: as §1
TP Receptor Platelet Aggregation—Rabbit:
New Zealand Rabbit (2.75±0.25 kg) platelet rich plasma
Assay: Inhibition of 1.5 μM U-46619-induced platelet aggregation Incubation Time, Temp: 5 minutes at 37° C. Incubation Buffer Trisodium Citrate (0.13 M)-treated platelet rich plasma
as §2, §3

[5] = system: arterial thrombosis in a mouse model; test: Arterial thrombosis mouse model (FeCl3 on femoral artery); assay type: in vivo; details: dose not given
Method: The solutions are diluted 3.3-fold in saline and 100 μl/25 g is injected. Thus, the above-mentioned doses of 100 and 300 mg/kg of compound correspond to final doses of 30 and 100 mg/kg.
During the experiments, a soluble salt of the drug is provided (potassium salt of compound C), diluted in saline. Of this formulation, 100 μl/25 g is injected i.v. in the tail vein (dose of 100 mg/kg).
Solutions are injected (100 μl/25 g body weight) i.v. in the tail vein over 2 min to obtain doses of each compound of 30 mg/kg and 100 mg/kg. Aspirin is given the same way at a dose of 200 mg/kg. Clopidogrel is administered by oral gavage at a dose of 20 mg/kg at 6-7 hours prior to the experiment. The animals assigned to each group are matched for body weight. Mice are typically 8-10 weeks old males and are in a 100% Swiss genetic background.
The flow in each image is expressed as a percentage of that at the contralateral side, and data are averaged for all 120 images to determine total flow. The same analysis is performed for 10 min intervals (which gives essentially the same information as the area under the curve). […] Flow before treatment is recorded as 100%, and that in occluded arteries as 0%. At the end of the experiment, blood is collected on 0.01M citrate by heart puncture for determination of blood cell counts. Plasma is prepared by centrifugation and stored at −20° C. for determination of drug levels.
Statistical analysis for differences between two groups is performed by non-parametric Student t-test. Occlusion times >30 min were considered equal to 30 min for statistical analysis. Significance is set at p<0.05.

Ki [1]	IC50 [1]	IC50 [2]	inhibition at 10 µM [3]	IC50 (Thromboxane synthase)	inhibition at 10 µM (Thromboxane synthase; 10 μM)	PPARgamma binding compared with Compound A (in words) ([1]; summary of Table 3)	IC50 ([3]; 5 nM [3H] SQ-29548)	Ki ([3]; 5 nM [3H] SQ-29548)	inhibition at 5 µM (Thromboxane synthase; 5 μM)	Inhibition of thromboxane synthase (in words) (Thromboxane synthase; Table 2)	PPARγ binding (in words) ([1]; at 30 μM)	Thromboxane synthase Human platelet Inhibition (%) (Thromboxane synthase; 10 μM)	Structure (SMILES)	inhibition at 30 µM ([4]; Oryctolagus cuniculus, Platelet, 30 μM, 1.5 μM U-46619-induced)	Inhibition of platelet aggregation (in words) ([4]; Table 2)	Occlusion time [5]	Total blood flow [5]	inhibition at 30 µM ([2]; 30 μM)	inhibition at 100 µM ([4]; Oryctolagus cuniculus, Platelet, 0.1 mM, 1.5 μM U-46619-induced)
4800 nM	13000 nM	1500 nM	105%	31900 nM	16%	–	–	–	–	–	–	–	O=C(O)CC/C=C\CC1COC(c2ccccc2Cl)OC1c1ccccc1O (racemic) [Compound A, (Z)-6-(-2-(2-chlorophenyl)-4-(2-hydroxyphenyl)-1,3-dioxan-5-yl)hex-4-enoic acid]	–	–	–	–	–	–
800 nM	2300 nM	–	101%	354 nM	–	at least as well as Compound A	1.25 nM	0.82 nM	71%	inhibitors of thromboxane synthase	–	–	COc1ccc(Oc2ccccc2C2OC[C@@H](C/C=C\CCC(=O)O)[C@@H](c3ccccc3O)O2)cc1 (stereo partly drawn) [Compound 1]	96%	potent inhibitors of platelet aggregation	prolongs the occlusion time	improves total blood flow	–	–
–	–	–	–	–	25%	–	–	–	–	–	no binding	28%	O=C(O)CC/C=C\C[C@H]1CO[C@@H](c2ccccc2Cl)O[C@H]1c1ccccc1O [Compound B, (Z)-6-((2R,4R,5S)-2-(2-chlorophenyl)-4-(2-hydroxyphenyl)-1,3-dioxan-5-yl)hex-4-enoic acid]	–	–	–	–	13%	15%

— US20120142766A1, “SUBSTITUTED 1,3-DIOXANES AND THEIR USES” (EVOLVA SA, priority 2007, published 2012)
